According to the NIST ThermoML archive (doi:10.1021/je9006585):
Numbers after ± are expanded uncertainties.

Conditions: Crystal; visual observation

Q: For C[n+]1ccn(CCCn2cc[n+](C)c2)c1.F[P-](F)(F)(F)(F)F.F[P-](F)(F)(F)(F)F, which Normal melting temperature is on record?
A: 142.2 ± 1.5 °C
